Experimental data published in US8623899B2, “Bis-benzimidazole derivatives as hepatitis C virus inhibitors” (Janssen Research & Development Ireland, priority 2009, dated 2014).

tested on: HCV type 1b replicon in Huh-7 luc/neo (Huh-Luc) cells; assay: HCV replicon assay (Huh-Luc, luciferase readout); format: cell-based; settings: Hepatitis C virus, Huh-7, 72 h, luciferase activity, incubation of three days, read-out: HCV-REP-HUH7LUC_EC50
Description: The compounds of formula (I) were examined for inhibitory activity in the HCV replicon. This cellular assay is based on a bicistronic expression construct, as described by Lohmann et al. (1999) Science vol. 285 pp. 110-113 with modifications described by Krieger et al. (2001) Journal of Virology 75: 4614-4624, in a multi-target screening strategy.
In essence, the method was as follows:
The assay utilized the stably transfected cell line Huh-7 luc/neo (hereafter referred to as Huh-Luc). This cell line harbors an RNA encoding a bicistronic expression construct comprising the wild type NS3-NS5B regions of HCV type 1b translated from an Internal Ribosome Entry Site (IRES) from encephalomyocarditis virus (EMCV), preceded by a reporter portion (FfL-luciferase), and a selectable marker portion (neo^R, neomycine phosphotransferase). The construct is flanked by 5′ and 3′ NTRs (non-translated regions) from HCV type 1b. Continued culture of the replicon cells in the presence of G418 (neo^R) is dependent on the replication of the HCV RNA. The stably transfected replicon cells that express HCV RNA, which replicates autonomously and to high levels, encoding inter alia luciferase, were used for screening the antiviral compounds.
The replicon cells were plated in 384 well plates in the presence of the test and control compounds which were added in various concentrations. Following an incubation of three days, HCV replication was measured by assaying luciferase activity (using standard luciferase assay substrates and reagents and a Perkin Elmer ViewLux™ ultraHTS microplate imager). Replicon cells in the control cultures have high luciferase expression in the absence of any inhibitor. The inhibitory activity of the compound on luciferase activity was monitored on the Huh-Luc cells, enabling a dose-response curve for each test compound. EC50 values were then calculated, which represent the amount of compound required to decrease the level of detected luciferase activity by 50%, or more specifically, to reduce the ability of the genetically linked HCV replicon RNA to replicate.

| SMILES | EC50 [nM] |
| --- | --- |
| O=C(C(O)Cc1cccnc1)N1CCC[C@H]1c1nc2ccc(-c3ccc(-c4ccc5nc([C@@H]6CCCN6C(=O)C(O)Cc6cccnc6)[nH]c5c4)cc3)cc2[nH]1 (mixture of isomers) [Compound 35] | 22 |
| O=C(C(c1ccccc1)N1C2CCC1CC2)N1CCC[C@H]1c1nc2ccc(-c3ccc(-c4ccc5nc([C@@H]6CCCN6C(=O)C(c6ccccc6)N6C7CCC6CC7)[nH]c5c4)cc3)cc2[nH]1 (mixture of isomers) [Compound 43] | 3.2 |
| O=C(C(c1ccccc1)N1CCCC(F)(F)C1)N1CCC[C@H]1c1nc2ccc(-c3ccc(-c4ccc5nc([C@@H]6CCCN6C(=O)C(c6ccccc6)N6CCCC(F)(F)C6)[nH]c5c4)cc3)cc2[nH]1 (mixture of isomers) [Compound 44] | 0.22 |
| O=C(C(Nc1ccccc1)c1ccc(Cl)cc1)N1CCC[C@H]1c1nc2ccc(-c3ccc(-c4ccc5nc([C@@H]6CCCN6C(=O)C(Nc6ccccc6)c6ccc(Cl)cc6)[nH]c5c4)cc3)cc2[nH]1 (mixture of isomers) [Compound 47] | 1.5 |
| COC(=O)NC(C(=O)N1CCC[C@H]1c1nc2ccc(-c3ccc(-c4ccc5nc([C@@H]6CCCN6C(=O)C(NC(=O)OC)C6CCOCC6)[nH]c5c4)cc3)cc2[nH]1)C1CCOCC1 (mixture of isomers) [Compound 55] | 0.18 |
| O=C(Cc1ccccc1)N1CCC[C@H]1c1nc2ccc(-c3ccc(-c4ccc5nc([C@@H]6CCCN6C(=O)Cc6ccccc6)[nH]c5c4)cc3)cc2[nH]1 [Compound 1] | 0.1 |
| COC(=O)N[C@H](C(=O)N1CCC[C@H]1c1nc2cc(-c3ccc(-c4ccc5nc([C@@H]6CCCN6C(=O)[C@@H](NC(=O)OC)[C@@H](C)OC)[nH]c5c4)cc3)ccc2[nH]1)[C@@H](C)OC [Compound 2] | 0.021 |
| O=C([C@H]1CCCO1)N1CCC[C@H]1c1nc2ccc(-c3ccc(-c4ccc5nc([C@@H]6CCCN6C(=O)[C@H]6CCCO6)[nH]c5c4)cc3)cc2[nH]1 [Compound 3] | 20 |
| CC(=O)N[C@@H](C(=O)N1CCC[C@H]1c1nc2ccc(-c3ccc(-c4ccc5nc([C@@H]6CCCN6C(=O)[C@H](NC(C)=O)c6ccccc6)[nH]c5c4)cc3)cc2[nH]1)c1ccccc1 [Compound 4] | 0.18 |
| CN(C)C(C(=O)N1CCC[C@H]1c1nc2ccc(-c3ccc(-c4ccc5nc([C@@H]6CCCN6C(=O)C(c6ccc(Cl)cc6)N(C)C)[nH]c5c4)cc3)cc2[nH]1)c1ccc(Cl)cc1 (stereo partly shown) [Compound 5] | 0.59 |
| COc1cccc(CCC(=O)N2CCC[C@H]2c2nc3ccc(-c4ccc(-c5ccc6nc([C@@H]7CCCN7C(=O)CCc7cccc(OC)c7)[nH]c6c5)cc4)cc3[nH]2)c1 [Compound 6] | 500 |
| O=C([C@@H](O)c1ccccc1)N1CCC[C@H]1c1nc2ccc(-c3ccc(-c4ccc5nc([C@@H]6CCCN6C(=O)[C@@H](O)c6ccccc6)[nH]c5c4)cc3)cc2[nH]1 [Compound 7] | 0.057 |
| O=C(CCc1ccccc1F)N1CCC[C@H]1c1nc2ccc(-c3ccc(-c4ccc5nc([C@@H]6CCCN6C(=O)CCc6ccccc6F)[nH]c5c4)cc3)cc2[nH]1 [Compound 8] | 160 |
| COC(=O)NC1(C(=O)N2CCC[C@H]2c2nc3ccc(-c4ccc(-c5ccc6nc([C@@H]7CCCN7C(=O)C7(NC(=O)OC)CC7)[nH]c6c5)cc4)cc3[nH]2)CC1 [Compound 9] | 1 |
| COc1c(F)cc(CC(=O)N2CCC[C@H]2c2nc3ccc(-c4ccc(-c5ccc6nc([C@@H]7CCCN7C(=O)Cc7cc(F)c(OC)c(F)c7)[nH]c6c5)cc4)cc3[nH]2)cc1F [Compound 10] | 130 |
| O=C(Cc1ccccc1OC(F)(F)F)N1CCC[C@H]1c1nc2ccc(-c3ccc(-c4ccc5nc([C@@H]6CCCN6C(=O)Cc6ccccc6OC(F)(F)F)[nH]c5c4)cc3)cc2[nH]1 [Compound 11] | 160 |
| O=C(Cc1cccnc1)N1CCC[C@H]1c1nc2ccc(-c3ccc(-c4ccc5nc([C@@H]6CCCN6C(=O)Cc6cccnc6)[nH]c5c4)cc3)cc2[nH]1 [Compound 12] | 0.15 |
| O=C(CCc1cccnc1)N1CCC[C@H]1c1nc2ccc(-c3ccc(-c4ccc5nc([C@@H]6CCCN6C(=O)CCc6cccnc6)[nH]c5c4)cc3)cc2[nH]1 [Compound 13] | 0.5 |
| O=C([C@@H]1CCCO1)N1CCC[C@H]1c1nc2ccc(-c3ccc(-c4ccc5nc([C@@H]6CCCN6C(=O)[C@@H]6CCCO6)[nH]c5c4)cc3)cc2[nH]1 [Compound 14] | 36 |
| O=C(C(=O)N1CCC[C@H]1c1nc2ccc(-c3ccc(-c4ccc5nc([C@@H]6CCCN6C(=O)C(=O)c6ccccc6)[nH]c5c4)cc3)cc2[nH]1)c1ccccc1 [Compound 15] | 40 |

| SMILES | EC50 [nM] |
| --- | --- |
| O=C(Cc1ccc2c(c1)OCO2)N1CCC[C@H]1c1nc2ccc(-c3ccc(-c4ccc5nc([C@@H]6CCCN6C(=O)Cc6ccc7c(c6)OCO7)[nH]c5c4)cc3)cc2[nH]1 [Compound 16] | 69 |
| CCN(CC)[C@@H](C(=O)N1CCC[C@H]1c1nc2ccc(-c3ccc(-c4ccc5nc([C@@H]6CCCN6C(=O)[C@@H](c6ccccc6)N(CC)CC)[nH]c5c4)cc3)cc2[nH]1)c1ccccc1 [Compound 17] | 0.03 |
| CN(C)CCC(=O)N1CCC[C@H]1c1nc2ccc(-c3ccc(-c4ccc5nc([C@@H]6CCCN6C(=O)CCN(C)C)[nH]c5c4)cc3)cc2[nH]1 [Compound 18] | 49 |
| O=C(C(c1ccccc1)n1ccnc1)N1CCC[C@H]1c1nc2ccc(-c3ccc(-c4ccc5nc([C@@H]6CCCN6C(=O)C(c6ccccc6)n6ccnc6)[nH]c5c4)cc3)cc2[nH]1 (stereo partly shown) [Compound 19] | 0.45 |
| O=C([C@@H](c1ccccc1)N1CCCCC1)N1CCC[C@H]1c1nc2ccc(-c3ccc(-c4ccc5nc([C@@H]6CCCN6C(=O)[C@@H](c6ccccc6)N6CCCCC6)[nH]c5c4)cc3)cc2[nH]1 [Compound 20] | 0.061 |
| O=C(c1ccoc1)N1CCC[C@H]1c1nc2ccc(-c3ccc(-c4ccc5nc([C@@H]6CCCN6C(=O)c6ccoc6)[nH]c5c4)cc3)cc2[nH]1 [Compound 21] | 58 |
| CCC(=O)N[C@@H](C(=O)N1CCC[C@H]1c1nc2ccc(-c3ccc(-c4ccc5nc([C@@H]6CCCN6C(=O)[C@H](NC(=O)CC)c6ccccc6)[nH]c5c4)cc3)cc2[nH]1)c1ccccc1 [Compound 22] | 0.034 |
| CNC(=O)N[C@H](C(=O)N1CCC[C@H]1c1nc2ccc(-c3ccc(-c4ccc5nc([C@@H]6CCCN6C(=O)[C@@H](NC(=O)NC)C(C)C)[nH]c5c4)cc3)cc2[nH]1)C(C)C [Compound 23] | 0.57 |
| Cc1nc(C(=O)N2CCC[C@H]2c2nc3ccc(-c4ccc(-c5ccc6nc([C@@H]7CCCN7C(=O)c7nc(C)oc7C)[nH]c6c5)cc4)cc3[nH]2)c(C)o1 [Compound 24] | 1.4 |
| O=C(c1ccccn1)N1CCC[C@H]1c1nc2ccc(-c3ccc(-c4ccc5nc([C@@H]6CCCN6C(=O)c6ccccn6)[nH]c5c4)cc3)cc2[nH]1 [Compound 25] | 1.7 |
| CC(C)C[C@@H](C(=O)N1CCC[C@H]1c1nc2ccc(-c3ccc(-c4ccc5nc([C@@H]6CCCN6C(=O)[C@H](CC(C)C)N(C)C)[nH]c5c4)cc3)cc2[nH]1)N(C)C [Compound 26] | 76 |
| O=C(c1ccc(F)cc1)N1CCC[C@H]1c1nc2ccc(-c3ccc(-c4ccc5nc([C@@H]6CCCN6C(=O)c6ccc(F)cc6)[nH]c5c4)cc3)cc2[nH]1 [Compound 27] | 240 |
| CC(C)[C@@H](C(=O)N1CCC[C@H]1c1nc2ccc(-c3ccc(-c4ccc5nc([C@@H]6CCCN6C(=O)[C@H](C(C)C)N(C)C)[nH]c5c4)cc3)cc2[nH]1)N(C)C [Compound 28] | 70 |
| O=C(CC1CCCCC1)N1CCC[C@H]1c1nc2ccc(-c3ccc(-c4ccc5nc([C@@H]6CCCN6C(=O)CC6CCCCC6)[nH]c5c4)cc3)cc2[nH]1 [Compound 29] | 550 |
| COC(=O)N[C@H](C(=O)N1CCC[C@H]1c1nc2ccc(-c3ccc(-c4ccc5nc([C@@H]6CCCN6C(=O)[C@@H](NC(=O)OC)C(C)C)[nH]c5c4)cc3)cc2[nH]1)C(C)C [Compound 30] | 0.006 |
| O=C(c1cccnc1)N1CCC[C@H]1c1nc2ccc(-c3ccc(-c4ccc5nc([C@@H]6CCCN6C(=O)c6cccnc6)[nH]c5c4)cc3)cc2[nH]1 [Compound 31] | 280 |
| COC(=O)N[C@@H](C(=O)N1CCC[C@H]1c1nc2ccc(-c3ccc(-c4ccc5nc([C@@H]6CCCN6C(=O)[C@H](NC(=O)OC)C(C)C)[nH]c5c4)cc3)cc2[nH]1)C(C)C [Compound 32] | 6.9 |
| CC(C)[C@H](O)C(=O)N1CCC[C@H]1c1nc2ccc(-c3ccc(-c4ccc5nc([C@@H]6CCCN6C(=O)[C@@H](O)C(C)C)[nH]c5c4)cc3)cc2[nH]1 [Compound 33] | 110 |
| O=C([C@H](O)c1ccccc1)N1CCC[C@H]1c1nc2ccc(-c3ccc(-c4ccc5nc([C@@H]6CCCN6C(=O)[C@H](O)c6ccccc6)[nH]c5c4)cc3)cc2[nH]1 [Compound 34] | 0.0037 |
| CN(C)[C@@H](C(=O)N1CCC[C@H]1c1nc2ccc(-c3ccc(-c4ccc5nc([C@@H]6CCCN6C(=O)[C@@H](c6ccccc6)N(C)C)[nH]c5c4)cc3)cc2[nH]1)c1ccccc1 [Compound 36] | 0.073 |
